Key:
[1] = biological target: Serine/threonine-protein kinase 17A (Homo sapiens) (UniProt Q9UEE5); conditions: Compound concentration 1000.0 nM
[2] = biological target: Serine/threonine-protein kinase MRCK alpha (Homo sapiens) (UniProt Q5VT25); conditions: Compound concentration 1000.0 nM
[3] = biological target: Ribosomal protein S6 kinase alpha-2 (Homo sapiens) (UniProt Q15349); conditions: Compound concentration 1000.0 nM
[4] = biological target: Calcium/calmodulin-dependent protein kinase type II subunit alpha (Homo sapiens) (UniProt Q9UQM7); conditions: Compound concentration 1000.0 nM
[5] = system: Fibroblast growth factor receptor 3 (Homo sapiens), P22607 [G697C]; conditions: Compound concentration 1000.0 nM
Rattus norvegicus = species: Rattus norvegicus; conditions: Compound concentration 10.0 uM
[6] = biological target: High affinity nerve growth factor receptor (Homo sapiens) (UniProt P04629); conditions: Compound concentration 1000.0 nM
High affinity nerve growth factor receptor (Homo sapiens), sequence (P04629 33-796 limits assumed): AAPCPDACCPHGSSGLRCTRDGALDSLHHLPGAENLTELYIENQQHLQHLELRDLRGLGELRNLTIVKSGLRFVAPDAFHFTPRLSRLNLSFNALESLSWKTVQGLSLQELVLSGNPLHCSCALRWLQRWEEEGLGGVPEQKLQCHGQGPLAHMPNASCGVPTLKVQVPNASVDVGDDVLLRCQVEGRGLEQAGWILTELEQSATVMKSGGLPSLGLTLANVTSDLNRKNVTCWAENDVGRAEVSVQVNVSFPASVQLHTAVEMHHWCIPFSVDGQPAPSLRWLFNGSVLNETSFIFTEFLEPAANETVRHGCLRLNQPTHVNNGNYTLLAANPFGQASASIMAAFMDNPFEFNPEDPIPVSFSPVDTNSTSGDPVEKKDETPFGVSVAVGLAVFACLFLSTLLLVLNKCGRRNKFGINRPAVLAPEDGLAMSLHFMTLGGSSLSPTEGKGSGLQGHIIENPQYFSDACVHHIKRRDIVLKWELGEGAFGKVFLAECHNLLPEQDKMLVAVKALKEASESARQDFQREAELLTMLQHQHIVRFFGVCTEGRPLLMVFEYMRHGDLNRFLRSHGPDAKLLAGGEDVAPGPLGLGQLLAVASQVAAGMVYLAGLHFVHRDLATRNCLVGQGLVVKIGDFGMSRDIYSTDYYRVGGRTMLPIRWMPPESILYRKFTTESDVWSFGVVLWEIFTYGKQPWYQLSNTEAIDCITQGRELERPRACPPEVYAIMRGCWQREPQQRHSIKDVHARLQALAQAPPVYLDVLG

[7] = biological target: Mitogen-activated protein kinase kinase kinase kinase 4 (Homo sapiens) (UniProt O95819); conditions: Compound concentration 1000.0 nM
[8] = biological target: Serine/threonine-protein kinase 10 (Homo sapiens) (UniProt O94804); conditions: Compound concentration 1000.0 nM
Serine/threonine-protein kinase 10 (Homo sapiens), sequence (O94804 whole entry, looked up): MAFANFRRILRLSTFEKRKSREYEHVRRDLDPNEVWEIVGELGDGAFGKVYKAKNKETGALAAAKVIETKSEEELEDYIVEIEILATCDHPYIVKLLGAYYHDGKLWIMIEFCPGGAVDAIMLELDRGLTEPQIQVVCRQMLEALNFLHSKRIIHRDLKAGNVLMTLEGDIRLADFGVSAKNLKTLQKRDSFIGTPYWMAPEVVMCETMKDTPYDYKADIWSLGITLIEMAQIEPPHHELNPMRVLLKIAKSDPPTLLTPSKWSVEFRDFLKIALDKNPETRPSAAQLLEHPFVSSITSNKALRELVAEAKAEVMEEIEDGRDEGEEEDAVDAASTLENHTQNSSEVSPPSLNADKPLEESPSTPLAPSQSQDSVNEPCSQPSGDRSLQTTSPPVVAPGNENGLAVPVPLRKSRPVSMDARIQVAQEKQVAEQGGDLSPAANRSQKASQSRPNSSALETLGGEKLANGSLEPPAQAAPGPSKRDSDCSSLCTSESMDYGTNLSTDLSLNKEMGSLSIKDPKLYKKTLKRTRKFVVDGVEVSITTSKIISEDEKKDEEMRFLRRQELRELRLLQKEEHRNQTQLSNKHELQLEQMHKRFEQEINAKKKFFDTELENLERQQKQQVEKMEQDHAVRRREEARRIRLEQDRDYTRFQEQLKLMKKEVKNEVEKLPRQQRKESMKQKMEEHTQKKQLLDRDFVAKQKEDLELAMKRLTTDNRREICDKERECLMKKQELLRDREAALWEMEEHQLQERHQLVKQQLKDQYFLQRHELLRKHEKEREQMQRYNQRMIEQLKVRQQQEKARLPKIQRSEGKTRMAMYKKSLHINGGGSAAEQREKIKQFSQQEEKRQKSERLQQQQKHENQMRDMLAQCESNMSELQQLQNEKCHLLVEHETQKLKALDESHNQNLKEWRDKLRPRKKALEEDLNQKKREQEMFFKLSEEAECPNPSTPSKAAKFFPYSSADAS

[9] = biological target: Phosphatidylinositol 3-kinase catalytic subunit type 3 (Homo sapiens) (UniProt Q8NEB9); conditions: Compound concentration 1000.0 nM
[10] = biological target: Tyrosine-protein kinase Blk (Homo sapiens) (UniProt P51451); conditions: Compound concentration 1000.0 nM
[11] = biological target: Aurora kinase C (Homo sapiens) (UniProt Q9UQB9); conditions: Compound concentration 1000.0 nM
Aurora kinase C (Homo sapiens), sequence (Q9UQB9 whole entry): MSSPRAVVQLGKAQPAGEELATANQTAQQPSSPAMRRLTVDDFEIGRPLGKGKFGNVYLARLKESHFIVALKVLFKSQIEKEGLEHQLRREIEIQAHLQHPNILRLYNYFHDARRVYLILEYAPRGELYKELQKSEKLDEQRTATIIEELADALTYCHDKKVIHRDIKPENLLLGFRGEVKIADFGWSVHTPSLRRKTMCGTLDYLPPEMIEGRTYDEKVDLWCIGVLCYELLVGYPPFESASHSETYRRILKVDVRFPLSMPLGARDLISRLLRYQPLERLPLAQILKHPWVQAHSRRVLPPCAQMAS

[12] = system: Receptor-type tyrosine-protein kinase FLT3 (Homo sapiens), P36888 [D835H]; conditions: Compound concentration 1000.0 nM
[13] = biological target: Cyclin-dependent kinase-like 3 (Homo sapiens) (UniProt Q8IVW4); conditions: Compound concentration 1000.0 nM
[14] = biological target: Hormonally up-regulated neu tumor-associated kinase (Homo sapiens) (UniProt P57058); conditions: Compound concentration 1000.0 nM
[15] = biological target: Mitotic checkpoint serine/threonine-protein kinase BUB1 (Homo sapiens) (UniProt O43683); conditions: Compound concentration 1000.0 nM
[16] = biological target: Kappa-type opioid receptor (Homo sapiens) (UniProt P41145); conditions: Compound concentration 10.0 uM
[17] = system: Mast/stem cell growth factor receptor Kit (Homo sapiens), P10721 [D816V]; conditions: Compound concentration 1000.0 nM
[18] = biological target: Tyrosine-protein kinase Tec (Homo sapiens) (UniProt P42680); conditions: Compound concentration 1000.0 nM
[19] = biological target: Mitogen-activated protein kinase kinase kinase 19 (Homo sapiens) (UniProt Q56UN5); conditions: Compound concentration 1000.0 nM
[20] = biological target: Mitogen-activated protein kinase 12 (Homo sapiens) (UniProt P53778); conditions: Compound concentration 1000.0 nM
[21] = system: Proto-oncogene tyrosine-protein kinase receptor Ret (Homo sapiens), P07949 [M918T]; conditions: Compound concentration 1000.0 nM
[22] = system: Epidermal growth factor receptor (Homo sapiens), P00533 [T790M]; conditions: Compound concentration 1000.0 nM
[23] = biological target: Receptor-interacting serine/threonine-protein kinase 1 (Homo sapiens) (UniProt Q13546); conditions: Compound concentration 1000.0 nM
[24] = biological target: 5-hydroxytryptamine receptor 3A (Homo sapiens) (UniProt P46098); conditions: Compound concentration 10.0 uM
5-hydroxytryptamine receptor 3A (Homo sapiens), sequence (P46098 whole entry): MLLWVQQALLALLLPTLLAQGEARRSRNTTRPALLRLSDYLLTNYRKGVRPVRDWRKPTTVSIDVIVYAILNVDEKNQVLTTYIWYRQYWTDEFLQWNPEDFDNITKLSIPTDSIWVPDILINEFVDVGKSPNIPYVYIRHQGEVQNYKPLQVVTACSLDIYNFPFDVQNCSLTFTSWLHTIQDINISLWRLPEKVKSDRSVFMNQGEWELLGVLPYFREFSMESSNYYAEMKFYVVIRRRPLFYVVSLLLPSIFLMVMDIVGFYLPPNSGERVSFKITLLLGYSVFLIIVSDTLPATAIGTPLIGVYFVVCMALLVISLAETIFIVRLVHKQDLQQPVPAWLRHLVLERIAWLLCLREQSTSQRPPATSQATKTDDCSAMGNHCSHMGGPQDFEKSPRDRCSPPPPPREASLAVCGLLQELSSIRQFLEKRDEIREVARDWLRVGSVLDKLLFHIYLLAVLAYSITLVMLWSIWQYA

[25] = system: Hepatocyte growth factor receptor (Homo sapiens), P08581 [Y1235D]; conditions: Compound concentration 1000.0 nM
[26] = biological target: Mitogen-activated protein kinase 11 (Homo sapiens) (UniProt Q15759); conditions: Compound concentration 1000.0 nM
[27] = biological target: AP2-associated protein kinase 1 (Homo sapiens) (UniProt Q2M2I8); conditions: Compound concentration 1000.0 nM
[28] = biological target: Megakaryocyte-associated tyrosine-protein kinase (Homo sapiens) (UniProt P42679); conditions: Compound concentration 1000.0 nM
Megakaryocyte-associated tyrosine-protein kinase (Homo sapiens), sequence (P42679 whole entry): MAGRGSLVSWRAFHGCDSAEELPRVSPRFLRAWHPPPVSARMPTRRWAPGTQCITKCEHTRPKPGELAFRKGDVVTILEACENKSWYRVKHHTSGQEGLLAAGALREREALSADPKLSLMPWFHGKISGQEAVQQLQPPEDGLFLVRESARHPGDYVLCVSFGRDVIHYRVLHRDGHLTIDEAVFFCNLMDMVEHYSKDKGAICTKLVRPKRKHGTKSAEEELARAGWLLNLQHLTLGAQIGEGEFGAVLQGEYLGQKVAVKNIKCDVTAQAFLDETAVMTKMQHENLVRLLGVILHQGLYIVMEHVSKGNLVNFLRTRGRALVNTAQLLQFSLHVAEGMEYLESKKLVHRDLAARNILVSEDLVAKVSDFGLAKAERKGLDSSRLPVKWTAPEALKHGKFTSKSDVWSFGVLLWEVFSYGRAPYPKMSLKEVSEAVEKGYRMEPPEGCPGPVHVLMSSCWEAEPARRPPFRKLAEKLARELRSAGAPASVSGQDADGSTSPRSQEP

[29] = system: ALK tyrosine kinase receptor (Homo sapiens), Q9UM73 [C1156Y]; conditions: Compound concentration 1000.0 nM
[30] = biological target: Ephrin type-A receptor 3 (Homo sapiens) (UniProt P29320); conditions: Compound concentration 1000.0 nM
Ephrin type-A receptor 3 (Homo sapiens), sequence (P29320 whole entry, canonical isoform): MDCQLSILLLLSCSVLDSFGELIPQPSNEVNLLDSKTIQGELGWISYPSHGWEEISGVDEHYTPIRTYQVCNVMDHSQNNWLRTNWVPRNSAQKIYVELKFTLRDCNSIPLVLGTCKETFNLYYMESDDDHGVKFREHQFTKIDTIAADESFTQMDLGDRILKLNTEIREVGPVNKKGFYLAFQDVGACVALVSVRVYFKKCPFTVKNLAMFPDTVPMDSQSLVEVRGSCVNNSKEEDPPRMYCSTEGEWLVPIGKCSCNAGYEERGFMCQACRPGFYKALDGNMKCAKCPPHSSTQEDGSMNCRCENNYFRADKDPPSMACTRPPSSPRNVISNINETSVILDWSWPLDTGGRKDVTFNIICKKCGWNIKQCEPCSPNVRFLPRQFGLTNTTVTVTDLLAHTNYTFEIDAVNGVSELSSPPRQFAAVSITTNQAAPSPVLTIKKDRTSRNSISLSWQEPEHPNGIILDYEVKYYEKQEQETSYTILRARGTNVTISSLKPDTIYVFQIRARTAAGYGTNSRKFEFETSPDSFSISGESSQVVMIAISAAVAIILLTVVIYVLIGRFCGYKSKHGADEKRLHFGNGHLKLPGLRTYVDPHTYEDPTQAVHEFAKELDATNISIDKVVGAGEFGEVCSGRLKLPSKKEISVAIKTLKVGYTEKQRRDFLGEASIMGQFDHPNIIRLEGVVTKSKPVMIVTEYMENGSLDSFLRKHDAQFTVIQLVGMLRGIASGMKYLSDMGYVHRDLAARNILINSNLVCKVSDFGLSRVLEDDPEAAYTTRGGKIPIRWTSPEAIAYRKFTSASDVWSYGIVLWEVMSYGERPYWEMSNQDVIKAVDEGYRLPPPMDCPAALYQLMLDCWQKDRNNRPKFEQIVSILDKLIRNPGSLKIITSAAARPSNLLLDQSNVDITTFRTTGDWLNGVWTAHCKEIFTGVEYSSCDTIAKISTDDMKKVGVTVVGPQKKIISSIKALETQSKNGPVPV

[31] = biological target: Casein kinase I isoform alpha (Homo sapiens) (UniProt P48729); conditions: Compound concentration 1000.0 nM
[32] = biological target: Fibroblast growth factor receptor 2 (Homo sapiens) (UniProt P21802); conditions: Compound concentration 1000.0 nM
[33] = biological target: NUAK family SNF1-like kinase 2 (Homo sapiens) (UniProt Q9H093); conditions: Compound concentration 1000.0 nM
[34] = biological target: Serine/threonine-protein kinase PknB (Mycobacterium tuberculosis) (UniProt P9WI81); conditions: Compound concentration 1000.0 nM
[35] = biological target: Muscarinic acetylcholine receptor M3 (Homo sapiens) (UniProt P20309); conditions: Compound concentration 10.0 uM
[36] = biological target: Protein-tyrosine kinase 6 (Homo sapiens) (UniProt Q13882); conditions: Compound concentration 1000.0 nM
[37] = biological target: Mitogen-activated protein kinase 10 (Homo sapiens) (UniProt P53779); conditions: Compound concentration 1000.0 nM
[38] = biological target: Serine/threonine-protein kinase SIK3 (Homo sapiens) (UniProt Q9Y2K2); conditions: Compound concentration 1000.0 nM
[39] = biological target: Phosphatidylinositol 5-phosphate 4-kinase type-2 beta (Homo sapiens) (UniProt P78356); conditions: Compound concentration 1000.0 nM
[40] = biological target: 5-hydroxytryptamine receptor 5A (Homo sapiens) (UniProt P47898); conditions: Compound concentration 10.0 uM
5-hydroxytryptamine receptor 5A (Homo sapiens), sequence (P47898 whole entry): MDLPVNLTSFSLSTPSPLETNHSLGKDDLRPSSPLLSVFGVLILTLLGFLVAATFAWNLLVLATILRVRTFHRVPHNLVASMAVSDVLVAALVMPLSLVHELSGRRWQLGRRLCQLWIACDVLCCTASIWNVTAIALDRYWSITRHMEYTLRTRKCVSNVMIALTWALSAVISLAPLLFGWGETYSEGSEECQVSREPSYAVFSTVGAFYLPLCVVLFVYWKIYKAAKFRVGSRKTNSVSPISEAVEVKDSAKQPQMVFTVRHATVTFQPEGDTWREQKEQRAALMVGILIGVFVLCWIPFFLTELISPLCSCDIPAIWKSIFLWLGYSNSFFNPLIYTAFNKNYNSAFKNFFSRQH

[41] = biological target: D(2) dopamine receptor (Homo sapiens) (UniProt P14416); conditions: Compound concentration 10.0 uM
[42] = biological target: Cytoplasmic tyrosine-protein kinase BMX (Homo sapiens) (UniProt P51813); conditions: Compound concentration 1000.0 nM
Cytoplasmic tyrosine-protein kinase BMX (Homo sapiens), sequence (P51813 whole entry): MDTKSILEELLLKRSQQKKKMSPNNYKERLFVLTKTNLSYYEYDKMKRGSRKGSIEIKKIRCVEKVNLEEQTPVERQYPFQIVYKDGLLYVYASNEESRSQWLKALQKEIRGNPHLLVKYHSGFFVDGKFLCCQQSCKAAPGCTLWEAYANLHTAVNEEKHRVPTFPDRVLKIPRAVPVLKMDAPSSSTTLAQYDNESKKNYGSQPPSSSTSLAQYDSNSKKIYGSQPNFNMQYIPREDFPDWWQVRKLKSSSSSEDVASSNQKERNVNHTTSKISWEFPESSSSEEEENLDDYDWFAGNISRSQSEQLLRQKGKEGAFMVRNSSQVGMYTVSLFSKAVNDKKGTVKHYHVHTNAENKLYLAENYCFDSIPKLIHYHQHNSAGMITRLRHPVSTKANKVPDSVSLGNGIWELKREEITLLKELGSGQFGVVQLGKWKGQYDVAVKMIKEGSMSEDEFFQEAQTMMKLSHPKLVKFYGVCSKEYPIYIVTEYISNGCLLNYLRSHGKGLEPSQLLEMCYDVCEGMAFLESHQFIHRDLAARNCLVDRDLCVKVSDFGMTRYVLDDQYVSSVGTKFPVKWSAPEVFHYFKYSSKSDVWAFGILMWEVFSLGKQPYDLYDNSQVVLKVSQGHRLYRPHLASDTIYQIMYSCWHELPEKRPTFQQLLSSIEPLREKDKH

[43] = biological target: Mitogen-activated protein kinase 7 (Homo sapiens) (UniProt Q13164); conditions: Compound concentration 1000.0 nM
[44] = biological target: Serine/threonine-protein kinase DCLK3 (Homo sapiens) (UniProt Q9C098); conditions: Compound concentration 1000.0 nM
[45] = biological target: Myosin-IIIa (Homo sapiens) (UniProt Q8NEV4); conditions: Compound concentration 1000.0 nM

Compound: CC(=O)Nc1c(C(C)=O)c(=O)n(C)c2nc(-c3ccc(Cl)cc3Cl)c(-c3ccc(Cl)cc3)cc12 [NAPHTHYRIDINONE]
- residual activity [1]: 100%
- residual activity [2]: 100%
- residual activity [3]: 100%
- residual activity [4]: 100%
- residual activity [5]: 100%
- inhibition (Rattus norvegicus): 82.7%
- residual activity [6]: 100%
- residual activity [7]: 100%
- residual activity [8]: 100%
- residual activity [9]: 100%
- residual activity [10]: 100%
- residual activity [11]: 100%
- residual activity [12]: 100%
- residual activity [13]: 100%
- residual activity [14]: 100%
- residual activity [15]: 92%
- inhibition [16]: 7.96%
- residual activity [17]: 100%
- residual activity [18]: 100%
- residual activity [19]: 100%
- residual activity [20]: 100%
- residual activity [21]: 100%
- residual activity [22]: 100%
- residual activity [23]: 100%
- inhibition [24]: 5.67%
- residual activity [25]: 100%
- residual activity [26]: 93%
- residual activity [27]: 100%
- residual activity [28]: 100%
- residual activity [29]: 100%
- residual activity [30]: 100%
- residual activity [31]: 100%
- residual activity [32]: 100%
- residual activity [33]: 100%
- residual activity [34]: 100%
- inhibition [35]: -6.59%
- residual activity [36]: 100%
- residual activity [37]: 100%
- residual activity [38]: 100%
- residual activity [39]: 91%
- inhibition [40]: 14.3%
- inhibition [41]: 5.73%
- residual activity [42]: 100%
- residual activity [43]: 100%
- residual activity [44]: 100%
- residual activity [45]: 100%

Compound: CC(=O)c1c(NS(C)(=O)=O)c2cc(-c3ccc(Cl)cc3)c(-c3ccc(Cl)cc3Cl)nc2n(C)c1=O [MRL-CB1-NC]
- residual activity [1]: 88%
- residual activity [2]: 95%
- residual activity [3]: 100%
- residual activity [4]: 100%
- residual activity [5]: 100%
- inhibition (Rattus norvegicus): 36.9%
- residual activity [6]: 64%
- residual activity [7]: 100%
- residual activity [8]: 100%
- residual activity [9]: 93%
- residual activity [10]: 100%
- residual activity [11]: 100%
- residual activity [12]: 96%
- residual activity [13]: 100%
- residual activity [14]: 100%
- residual activity [15]: 76%
- inhibition [16]: 2.99%
- residual activity [17]: 100%
- residual activity [18]: 100%
- residual activity [19]: 85%
- residual activity [20]: 100%
- residual activity [21]: 100%
- residual activity [22]: 64%
- residual activity [23]: 97%
- inhibition [24]: 3.2%
- residual activity [25]: 95%
- residual activity [26]: 100%
- residual activity [27]: 100%
- residual activity [28]: 83%
- residual activity [29]: 100%
- residual activity [30]: 92%
- residual activity [31]: 100%
- residual activity [32]: 92%
- residual activity [33]: 89%
- residual activity [34]: 83%
- inhibition [35]: 4.36%
- residual activity [36]: 100%
- residual activity [37]: 78%
- residual activity [38]: 100%
- residual activity [39]: 65%
- inhibition [40]: 39.9%
- inhibition [41]: 2.43%
- residual activity [42]: 100%
- residual activity [43]: 92%
- residual activity [44]: 100%
- residual activity [45]: 88%
